EPA's CvTdb concentration-time database

How the values were obtained:
rat [1] = experiment: concentration in blood after dosing; negative times count back from the end of exposure; details: dosed: 1,1-dichloroethylene, inhalation, duration: 3 hr, male, Sprague-Dawley
Rat [2] = experiment: concentration in plasma after dosing; details: dosed: 2,4-Dichlorophenoxyacetic acid, Male, Sprague-Dawley

C=C(Cl)Cl [1,1-dichloroethylene]
rat [1]
Details	concentration in blood [µg/mL]
0.1331 h, 75 ppm	0.162
0.1373 h, 300 ppm	2.12
0.1374 h, 25 ppm	0.0614
0.1383 h, 150 ppm	0.122
0.1969 h, 75 ppm	0.117
0.1973 h, 150 ppm	0.108
0.1979 h, 25 ppm	0.0386
0.2044 h, 300 ppm	1.74
0.2603 h, 150 ppm	0.0929
0.2608 h, 75 ppm	0.0837
0.261 h, 25 ppm	0.0329
0.2757 h, 300 ppm	1.35
0.3322 h, 75 ppm	0.0625
0.3352 h, 300 ppm	1.06
0.3356 h, 25 ppm	0.0292
0.3396 h, 150 ppm	0.068
0.3946 h, 150 ppm	0.0616
0.3984 h, 25 ppm	0.0266
0.3984 h, 300 ppm	0.874
0.3991 h, 75 ppm	0.0549
0.496 h, 25 ppm	0.0254
0.4961 h, 150 ppm	0.06
0.508 h, 300 ppm	0.801
0.5085 h, 75 ppm	0.0508
4 s, 75 ppm	0.34
13 s, 150 ppm	0.473
118 s, 25 ppm	0.126
132 s, 75 ppm	0.312
133 s, 150 ppm	0.291
137 s, 300 ppm	3.09
232 s, 75 ppm	0.275
238 s, 25 ppm	0.0789
238 s, 150 ppm	0.188
253 s, 300 ppm	2.5

rat [1], during exposure
Details	concentration in blood [µg/mL]
-14 s, 25 ppm	0.184
-8 s, 300 ppm	4.15
-2.956 h, 25 ppm	0.0503
-2.956 h, 75 ppm	0.1
-2.954 h, 300 ppm	1.03
-2.951 h, 150 ppm	0.083
-2.903 h, 25 ppm	0.0674
-2.899 h, 75 ppm	0.139
-2.899 h, 150 ppm	0.154
-2.893 h, 300 ppm	1.32
-2.861 h, 150 ppm	0.19
-2.854 h, 300 ppm	1.49
-2.853 h, 75 ppm	0.17
-2.846 h, 25 ppm	0.0927
-2.793 h, 25 ppm	0.128
-2.793 h, 300 ppm	1.68
-2.792 h, 150 ppm	0.271
-2.787 h, 75 ppm	0.188
-2.729 h, 75 ppm	0.212
-2.727 h, 25 ppm	0.143
-2.727 h, 150 ppm	0.302
-2.727 h, 300 ppm	1.84
-2.657 h, 150 ppm	0.325
-2.653 h, 25 ppm	0.149
-2.653 h, 300 ppm	1.92
-2.652 h, 75 ppm	0.253
-2.583 h, 300 ppm	2.08
-2.582 h, 75 ppm	0.263
-2.575 h, 25 ppm	0.143
-2.568 h, 150 ppm	0.371
-2.498 h, 25 ppm	0.155
-2.494 h, 300 ppm	2.2
-2.492 h, 75 ppm	0.283
-2.49 h, 150 ppm	0.408
-2.396 h, 300 ppm	2.25
-2.393 h, 25 ppm	0.162
-2.391 h, 75 ppm	0.301
-2.389 h, 150 ppm	0.421
-2.197 h, 75 ppm	0.333
-2.194 h, 25 ppm	0.162
-2.194 h, 150 ppm	0.424
-2.194 h, 300 ppm	2.41
-1.996 h, 300 ppm	2.6
-1.995 h, 25 ppm	0.166
-1.99 h, 75 ppm	0.335
-1.988 h, 150 ppm	0.461
-1.743 h, 300 ppm	2.76
-1.742 h, 25 ppm	0.171
-1.741 h, 75 ppm	0.34
-1.738 h, 150 ppm	0.453
-1.5 h, 25 ppm	0.176
-1.497 h, 300 ppm	3.05
-1.496 h, 75 ppm	0.346
-1.493 h, 150 ppm	0.463
-1.003 h, 300 ppm	3.38
-1.002 h, 150 ppm	0.45
-0.9974 h, 25 ppm	0.172
-0.9966 h, 75 ppm	0.338
-0.5007 h, 300 ppm	3.85
-0.4991 h, 150 ppm	0.466
-0.4977 h, 75 ppm	0.337
-0.4481 h, 25 ppm	0.182

O=C(O)COc1ccc(Cl)cc1Cl [2,4-Dichlorophenoxyacetic acid]
Rat [2]
Details	concentration in plasma [µg/mL]
0.25 h, 2.0 mg/kg, iv	12.2
0.25 h, 7.0 mg/kg, oral	9.67
0.5 h, 2.0 mg/kg, iv	7.63
0.5 h, 7.0 mg/kg, oral	4.67
0.75 h, 2.0 mg/kg, iv	4.75
2 h, 2.0 mg/kg, iv	0.376
2 h, 7.0 mg/kg, oral	6.51
2.5 h, 2.0 mg/kg, iv	2.04
2.5 min, 2.0 mg/kg, iv	24.8
2.5 min, 7.0 mg/kg, oral	9.34
3 h, 2.0 mg/kg, iv	0.863
3 h, 7.0 mg/kg, oral	3.57
3.5 h, 2.0 mg/kg, iv	0.858
4 h, 2.0 mg/kg, iv	0.482
4 h, 7.0 mg/kg, oral	7.74
5 h, 7.0 mg/kg, oral	4.72
6 h, 7.0 mg/kg, oral	0.472
10 min, 2.0 mg/kg, iv	14.1
10 min, 7.0 mg/kg, oral	12.5
